Series [1] deals with T1, recombinant human Meningioma Expressed Antigen 5 (MGEA5), also referred to as O-GlcNAcase (OGA) (Homo sapiens, UniProt O60502).
T1 construct: Full length OGA enzyme was purchased at OriGene (cat # TP322411); purchased OriGene TP322411
T1 sequence (O60502 1-916): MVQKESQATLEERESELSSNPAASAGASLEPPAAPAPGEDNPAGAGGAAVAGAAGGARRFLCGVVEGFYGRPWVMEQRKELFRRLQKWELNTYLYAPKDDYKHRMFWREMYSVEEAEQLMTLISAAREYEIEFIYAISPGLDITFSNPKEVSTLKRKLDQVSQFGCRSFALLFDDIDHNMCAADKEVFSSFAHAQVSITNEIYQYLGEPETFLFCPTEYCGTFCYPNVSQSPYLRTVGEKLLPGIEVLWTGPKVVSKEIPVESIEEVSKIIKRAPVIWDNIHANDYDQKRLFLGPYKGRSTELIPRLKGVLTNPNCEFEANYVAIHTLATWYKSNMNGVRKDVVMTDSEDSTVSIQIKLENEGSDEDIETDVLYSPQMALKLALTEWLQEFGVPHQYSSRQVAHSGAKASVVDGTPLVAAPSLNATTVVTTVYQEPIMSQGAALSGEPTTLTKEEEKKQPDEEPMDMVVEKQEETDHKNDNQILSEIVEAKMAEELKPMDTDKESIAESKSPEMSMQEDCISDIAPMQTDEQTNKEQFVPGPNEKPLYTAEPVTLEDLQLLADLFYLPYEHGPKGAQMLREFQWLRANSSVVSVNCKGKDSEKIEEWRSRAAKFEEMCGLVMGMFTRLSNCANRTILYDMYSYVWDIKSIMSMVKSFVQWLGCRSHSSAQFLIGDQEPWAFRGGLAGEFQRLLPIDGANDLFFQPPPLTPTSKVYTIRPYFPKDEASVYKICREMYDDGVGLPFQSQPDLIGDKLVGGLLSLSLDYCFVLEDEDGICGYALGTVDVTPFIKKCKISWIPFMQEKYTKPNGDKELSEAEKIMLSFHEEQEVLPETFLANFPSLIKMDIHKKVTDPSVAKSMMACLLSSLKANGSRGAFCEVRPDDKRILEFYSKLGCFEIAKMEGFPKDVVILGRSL
In words: OGA biochemical assay: inhibition of FM-GlcNAc hydrolysis, fluorescence; protocol A (10 nM OGA, 1 h) or protocol B (2 nM OGA, 6 h). The conditions noted are these: for IC50: read-out: Enzymatic hOGA, pIC50 (converted).

Series [2] deals with T2, OGA (Homo sapiens, UniProt O60502).
T2 construct: HEK293 cells inducible for P301L mutant human Tau (isoform 2N4R) were established at Janssen; endogenous in cells; host or cells: HEK293 cells inducible for P301L mutant human Tau (2N4R)
T2 sequence (O60502 1-916): T1 sequence (O60502 1-916)
Briefly: OGA cellular assay: immunocytochemical detection of O-GlcNAcylated proteins in HEK293 cells inducible for P301L mutant human Tau. The format is cell-based. The conditions noted are these: for Emax: HEK293, read-out: Cellular Emax (%).

Setting [3] is: Enzymatic protocol A (10 nM OGA, 1 h).
The mark [4] stands for this setting: Enzymatic protocol B (2 nM OGA, 6 h).

Read-outs that look alike come from different tables or passages of the source.

In the case of `CC(=O)Nc1ncc(CN2CCCC(c3cc(C(F)F)n4ccnc4n3)C2)s1` (racemic) [Product 24], the melting point (commonly the temperature, or range, at which the solid turns liquid) came to 232.44 °C. In addition, in series [1] (setting [3]), the Emax (usually the greatest response seen or fitted, relative to the assay's reference) was found to be 102% and the IC50 was 31.6 nM. For the same compound, in series [2], a half-maximal effect (EC50) was put at 479 nM and the maximum response (Emax) was determined as 109%.

`CC(=O)Nc1ncc(S(=O)(=O)N2CCOC(c3cc(C)nc4ncnn34)C2)s1` (racemic) [Product 28] returned a melting point of 290.78 °C. In series [1] (setting [3]), the maximal response (Emax) came to 103% and the IC50 was 9.12 nM. Also, in series [1] (setting [4]), the maximal effect (Emax) stood at 101% and the IC50 is 8.51 nM. Also, in series [2], the concentration giving a half-maximal response (EC50) – broadly, the concentration at which the effect is half-maximal – is more than 10000 nM and the maximal effect (Emax) was 22%.

The compound `CC(=O)Nc1ncc(CN2CCCC(c3cc4cc[nH]c4nc3C)C2)s1` (racemic) [Product 74] returned a melting point of 276.23 °C. Moreover, in series [1] (setting [3]), the maximal response (Emax) was 101% and the IC50 was 6.31 nM. In series [2], the concentration for a half-maximal effect (EC50) was 13.5 nM and the Emax was found to be 102%.

On to `CC(=O)Nc1ncc(CN2CCC[C@H](c3ccnc4ncnn34)C2)s1` [Product 9], for which the melting point was 234.6 °C. In series [1] (setting [3]), the Emax was determined as 101% and the IC50 was 11.7 nM. In series [2], the EC50 was 38.9 nM and the Emax turned out to be 109%.

Turning to `CC(=O)Nc1ncc(CN2CCCC(c3cc(C(F)F)nc4nccn34)C2)s1` (stereo not drawn) [Product 14], the melting point came to 226.06 °C. In series [1] (setting [3]), the Emax was 102% and the IC50 was 8.71 nM. Also, in series [2], the half-maximal effective concentration (EC50) was 70.8 nM and the Emax came out at 108%.

Compound `CC(=O)Nc1ncc(CN2CCC[C@@H](c3cc(C(F)F)n4ncnc4n3)C2)s1` [Product 25] returned a melting point of 182.53 °C. In series [1] (setting [3]), the maximal effect (Emax) came out at 103% and the IC50 was 13.5 nM. Besides, in series [2], the midpoint of the response, the EC50, lay at 457 nM and the Emax came out at 113%.

The compound `CC(=O)Nc1ncc(S(=O)(=O)N2CCOC(c3cc(C(F)(F)F)nc4ncnn34)C2)s1` (stereo not drawn) [Product 27] came in with a melting point of 255.12 °C. In series [1] (setting [3]), the maximal effect (Emax) was 100% and the IC50 was 17 nM. For the same compound, in series [2], the EC50 is more than 10000 nM and the maximal response (Emax) turned out to be 19.5%.

On to `CC(=O)Nc1ncc(S(=O)(=O)N2CCO[C@@H](c3ccnc4ncnn34)C2)s1` [Product 31], for which the melting point was 263.16 °C. Besides, in series [1] (setting [3]), the Emax was 103% and the IC50 was 15.8 nM. Further, in series [2], the EC50 was more than 10000 nM and the Emax was determined as 11.1%.

Compound `CC(=O)Nc1ncc(S(=O)(=O)N2CCO[C@H](c3ccnc4ncnn34)C2)s1` [Product 32] registered a melting point of 260.51 °C. In series [1] (setting [3]), the maximal effect (Emax) was found to be 102% and the IC50 was 14.5 nM. Moreover, in series [2], the 50% effective concentration (EC50) was more than 10000 nM and the maximal effect (Emax) amounted to 21.8%.

On to `CC(=O)Nc1ncc(S(=O)(=O)N2CCOC(c3cc(C(F)F)nc4ncnn34)C2)s1` (stereo not drawn) [Product 33], for which the melting point amounted to 264.85 °C. Besides, in series [1] (setting [3]), the Emax was 101% and the IC50 was 6.46 nM. In series [2], the concentration for a half-maximal effect (EC50) is more than 10000 nM and the maximal response (Emax) was determined as 15.7%.

`CC(=O)Nc1ncc(S(=O)(=O)N2CCNC(c3cc(C(F)F)nc4ncnn34)C2)s1` (stereo not drawn) [Product 41]: the melting point amounted to 227.97 °C. For the same compound, in series [1] (setting [3]), the Emax worked out at 102% and the IC50 is 6.17 nM. For the same compound, in series [2], the EC50 was more than 10000 nM and the Emax worked out at 10.5%.

The compound `CC(=O)Nc1ncc(CN2CCC(Cc3cnc4cc[nH]c4c3)C2)s1` (stereo not drawn) [Product 68] showed a melting point of 190.79 °C. Moreover, in series [1] (setting [4]), the maximal response (Emax) turned out to be 101% and the IC50 is 5.37 nM. For the same compound, in series [2], the EC50 is 41.7 nM and the Emax amounted to 91.2%.

In turn, `CC(=O)Nc1ncc(CN2CC[C@H](Cc3nccn4c(C)cnc34)C2)s1` [Product 104] came in with a melting point of 189.54 °C. In series [1] (setting [4]), the Emax amounted to 100% and the IC50 was 1.48 nM. For the same compound, in series [2], the half-maximal effective concentration (EC50) is 61.7 nM and the maximum response (Emax) was determined as 91.5%.

Turning to `CC(=O)Nc1ncc(CN2CC[C@H](Cc3cncc4nccn34)C2)s1` [Product 108], the melting point was found to be 202.48 °C. Further, in series [1] (setting [4]), the maximum response (Emax) is 101% and the IC50 was 4.9 nM. In series [2], the EC50 was 97.7 nM and the Emax was 92.7%.

For the origin of these results see patent publication US20200157092A1, “[1,2,4]-TRIAZOLO [1,5-A]-PYRIMIDINYL DERIVATIVES SUBSTITUTED WITH PIPERIDINE, […] […] OGA INHIBITORS” (priority 2017, published 2020).
